Where a name gives a salt, the structure may show the parent alone.
Legend:
Type in all cases: cell-based
influenza virus = assay: Anti-influenza activity (summary)
Mouse spleen cells = assay: Mitogen Induced (Con A) Mouse Lymphocyte Proliferation
Source text: The following three assay procedures are used to evaluate the ability of the test substances to modulate the activity of several classes of cells in the immune system. In these systems it is possible to identify both immunopotentiating activity (evidence by an enhancement of the parameter examined) as well as immunosuppressant activity (evidenced by an inhibition of the parameter examined).
1. Mitogen--Induced Mouse Spleen Cell Assay--Mouse spleen cells contain a population of both B and T lymphocytes which can be stimulated by a number of foreign substances (e.g., plant mitogens such as Con A) to proliferate. This enhanced proliferation is an indication of enhanced cell mediated immunity. The method below describes the system used to evaluate test substances as immunopotentiators.
Concanavalin A (Calbiochem, La Jolla, Calif.), Lot #210073, lyophilized in NaCl, was prepared first as a 1% solution and diluted as a 2× concentration for each dilution (0.5, 1.0, 2.5 μg/ml).
Six to eight week old male Balb/c and C3 H inbred mice were obtained from the following sources: Flow Research Animals, Inc., Dublin, Va.; Charles River Breeding Laboratories, Wilmington, Mass.; Laboratory Supply Company, Indianapolis, Ind.; and Lionel Strong Foundation, San Diego, Calif.
Three to five mice were sacrificed by cervical dislocation and the spleens aseptically removed. Pooled spleens were minced and teased with sterile forceps; then strained through a double layer of nylon mesh. The cell suspension was washed once with 15 ml of RPMI 1640 supplemented with 5% fetal calf serum and antibiotics. Cells were cultured at a concentration of 10^6 cells/0.1 ml/well in micro-plates. Cultures were incubated in the presence or absence of mitogen in a humidified atmosphere containing 5% CO2 for 48 hours. The test compound was added to cultures at various concentrations concommitant with mitogen.
Proliferation was assayed by the degree of incorporation of 1.0 μCi of [^3 H] thymidine over an 18 hour incubation period. Cultures were harvested by a MASH unit (Otto Hiller Co., Madison, Wisconsin) and thymidine incorporation was assayed by liquid scintillation spectrometry. Cultures were performed in triplicate and data are expressed as means plus or minus the strandard error of the experimental means. Drug stimulation indices over control values were also calculated and portrayed graphically.

[1] = test system: human peripheral blood lymphocytes; assay: Mitogen Induced (PHA) Human Lymphocyte Proliferation

## CCCCCC[C@H]([C@H](C)O)n1cnc2c(N)ncnc21 (relative stereo) [NPT 15426, Erythro-9-(2-Hydroxy-3-Nonyl)-Adenine. HCl]
Influenza virus
  anti-influenza activity by themselves: significant anti-influenza activity
Mouse spleen cells; 1.0-10
  Maximum Percent Change, Mitogen Induced (Con A) Mouse Lymph. Prolif.: -85%
Mouse spleen cells; 10-100
  Maximum Percent Change, Mitogen Induced (Con A) Mouse Lymph. Prolif.: -91%
Mouse spleen cells; .01-1.0
  Maximum Percent Change, Mitogen Induced (Con A) Mouse Lymph. Prolif.: -50%
[1]; 1.0-10
  Maximum Percent Change, Mitogen Induced (PHA) Human Lymph. Prolif.: -41%
[1]; .01-1.0
  Maximum Percent Change, Mitogen Induced (PHA) Human Lymph. Prolif.: 6%
